Consider four compounds from article PMC4946153 (Cardiovascular Diabetology, 2016).

The subject of assay [1] is Cor.4U human iPSC-derived cardiomyocytes. Kind of assay: Beating-rate by impedance measurement in human Cor.4U cells. The format is cell-based. Conditions: 500 nM; for time to maximum beating-rate / beating-rate, area under the curve for 6 h: n = 4; for beating-rate, area under the curve for 6 h: vs. basal. The method, then:
(§1) The cardiac mouse cell line HL-1, a cell line derived from the AT-1 mouse atrial cardiomyocyte tumour lineage, was kindly provided by Dr. W.C. Claycomb (Louisiana State University, New Orleans, LA, USA). HL-1 cells were cultivated in Claycomb medium containing 10 % fetal calf serum (FCS), 100 µM norepinephrine and 4 mM L-glutamine (all from Sigma-Aldrich, Munich, Germany) on gelatine/fibronectin coated plates. H9c2 cells (ATCC CRL-1446), stably transfected with the human IR in our laboratory (H9c2-E2) were cultivated in DMEM, low glucose containing 10 % FCS, 1 % non–essential amino acids and 600 µg/ml G418 (all from Invitrogen, Carlsbad, CA, USA). Commercially available iPS-derived human cardiomyocytes (Cor.4U®) (Axiogenesis, Cologne, Germany) were cultured in Cor.4U® Complete Medium containing 10 % FCS on fibronectin–coated 96-well E-Plate (Acea Biosciences, San Diego, CA, USA). The medium was changed twice daily. All cells were incubated at 37 °C with 5 % CO2 in a humidified incubator.
Cor.4U® cardiomyocytes were seeded at a density of 30,000 cells per well. From day 3 on the cells were cultured in Iscove’s Basal Medium containing 1 % GlutaMAX supplement (both Life Technologies, Carlsbad, CA, USA) and 2 µg/ml Ciprobay (Bayer, Leverkusen, Germany). […] Impedance of each well was measured with the RTCA Cardio xCELLigence Analyser (Acea Biosciences, San Diego, CA, USA) during the whole experiment. Beating-rate and cell index were analysed by RTCA cardio software (Acea Biosciences, San Diego, CA, USA).

Assay [2] concerns adult rat ventricular cardiomyocytes (ARVM). Kind of assay: Contractility of paced adult rat ventricular cardiomyocytes. The format is cell-based. Conditions: 100 nM, 5 min pre-treatment, ARVM paced 1 Hz, 15 V, 0.5 ms, 37 °C; vs. control; n = 4. As for the experimental part:
Adult rat ventricular cardiomyocytes (ARVM) were isolated from wild-type Lewis rats (Lew/Crl) as previously described. […] Subsequently, ARVM were cultivated over-night in DMEM/F12 containing 33 µM biotin and 17 µM pantothenate (Invitrogen, Carlsbad, CA, USA). […] Furthermore, untreated ARVM or ARVM treated with 10 nM isoproterenol (Sigma-Aldrich, Munich, Germany) were immediately measured. ARVM were paced with bipolar pulses in a contractility and fluorescence system (IonOptix, Milton, MA, USA) at 15 V, 1 Hz, 0.5 ms, at 37 °C for up to 10 min and 10–14 contractions of at least 10 rod–shaped ARVM per condition were recorded. Sarcomeric shortening, shortening rate and re-lengthening rate were calculated using the IonWizard software (IonOptix, Milton, MA, USA). […] Afterwards, ARVM were treated as described above. […] Microscopic pictures were taken randomly with at least 10 pictures per condition. As a positive control 200 µM H2O2 was utilised. For each condition at least 400 cells were counted per experiment.

A further assay has as its system HL-1 cells. In words: 2-deoxy-D-glucose uptake in HL-1 cardiomyocytes. The format is cell-based, mouse. Conditions: 200 nM, 60 min. The method, then:
as §1
HL-1 cells were seeded at a density of 400,000 cells per well in a 12-well plate. […] Incorporated glucose was measured by scintillation counting of the cell lysates in a liquid scintillation counter (Beckman Coulter, Pasadena, CA, USA). Values were corrected for non-specific uptake as measured by incubation with L-[^14C]glucose (PerkinElmer, Waltham, MA, USA).

Assay [3] has as its system H9c2-E2 cells (H9c2 overexpressing the human insulin receptor). In words: Caspase 3/7 activity assay in H9c2-E2 cells. The format is cell-based, rat. As to conditions: for prevention of H2O2-induced caspase 3/7 activation (in words): 100 nM + 800 µM H2O2, 2 h. As for the experimental part:
as §1
Caspase 3/7 activity was then measured by the caspase-Glo® 3/7 assay system (Promega, Madison, Wisconsin, USA) as described in the manual. After 2 h incubation period caspase 3/7 activity was analysed by measuring the luminescence in an Infinite 200 plate reader (Tecan, Männedorf, Switzerland).

The test system of assay [4] is cardiovascular effects in patients. Conditions: ORIGIN trial, ref [15]; cited from earlier work. The text has this:
(§2) So far, finalised clinical data is only available for IGla, whereas for IDeg the investigation is still ongoing.

The test system of assay [5] is Akt(Ser473) phosphorylation in HL-1 cells. In words: Akt(Ser473) phosphorylation in HL-1 cells, Western blot. It counts as cell-based, mouse. As to conditions: for Akt(Ser473) phosphorylation level: vs. Ins and other analogues. The method, then:
as §1

For assay [6], the target named is insulin receptor (solubilised, S-IR). Kind of assay: Competition binding, solubilised IR (S-IR). The method, then: Binding on a freshly solubilised IR preparation (S-IR) was performed as previously described with some modifications. Aliquots of membranes were incubated at 4 °C for 30 min in a solubilisation buffer (20 mM HEPES–NaOH, 100 mM NaCl, 10 mM MgSO4, 1 % (w/v) n-Dodecyl-ß-D-maltoside (Sigma-Aldrich, Munich, Germany), adjusted to pH 7.8 and Complete TM Protease Inhibitor cocktail). Thereafter, ultra-centrifugation was performed at 100,000g for 30 min and 4 °C to remove non–solubilised debris. Protein concentration in the supernatant was adjusted to 0.15 mg/ml with binding buffer (100 mM HEPES–NaOH, 100 mM NaCl, 10 mM MgSO4, 0.025 % (v/v) Tween-20, adjusted to pH 7.8 and complete TM protease inhibitor cocktail). To streptavidin SPA beads (5 mg in […] binding buffer), 50 µl of an anti-IR alpha-antibody 83-7 (Abcam, Cambridge, UK) was added. After incubation for 30 min, SPA beads were once washed and finally re-suspended in 500 µl binding buffer. A solution of solubilised receptor (1 ml, 0.15 mg/ml) was added and incubated for further 60 min, before washing and resuspension in 1.5 ml.
(§3) Results are expressed as mean values ± SEM of at least three independent experiments. For statistical analysis Graphpad Prism v5.00 (Graphpad Software, San Diego, CA, USA) was used. One-way ANOVA was performed to determine significance between conditions, with level of significance chosen at p < 0.05. In case of IC50 determinations for binding, a non-parametric Kruskal–Wallis testing was performed, again with level of significance chosen at p < 0.05.

The subject of assay [7] is insulin receptor (membrane embedded, M-IR; CHO-cells overexpressing the IR). In words: Competition binding, membrane embedded IR (M-IR). The method, then:
Briefly, CHO-cells overexpressing the IR were collected and re-suspended in ice-cold 2.25 STM buffer (2.25 M sucrose, 5 mM Tris–HCl pH 7.4, 5 mM MgCl2, complete protease inhibitor) and disrupted using a Dounce homogenizer followed by sonication. The homogenate was overlaid with 0.8 STM buffer (0.8 M sucrose, 5 mM Tris–HCl pH 7.4, 5 mM MgCl2, complete protease inhibitor) and ultra-centrifuged for 90 min at 100,000g. Plasma membranes at the interface were collected and washed twice with phosphate buffered saline (PBS). The final pellet was re-suspended in dilution buffer (50 mM Tric-HCl pH 7.4, 5 mM MgCl2, complete protease inhibitor) and again homogenised with a Dounce homogenizer. Competition binding experiments were performed in a binding buffer (50 mM Tris–HCl, 150 mM NaCl, 0.1 % BSA, complete protease inhibitor, adjusted to pH 7.8) in 96-well microplates. In each well 2 µg isolated membrane were incubated with 0.25 mg wheat germ agglutinin polyvinyltoluene polyethylenimine scintillation proximity assay (SPA) beads. […] The radioactivity was measured at equilibrium in a microplate scintillation counter (Wallac Microbeta, Freiburg, Germany).
as §3

In assay [8] the test system is Akt(Thr308) phosphorylation in HL-1 cells. In words: Akt(Thr308) phosphorylation in HL-1 cells, Western blot. The format is cell-based, mouse. Conditions: n = 3. The method, then: as §1
(In western blotting, separated proteins are transferred to a membrane and probed.)

For assay [9], the system named is cardiovascular outcome in patients. As to conditions: DEVOTE interim analysis; ref [16], [17]; cited from earlier work.
Source text: as §2

The mark [10] stands for this setting: 200 nM, 60 min, HL-1, normalised to tubulin, n = 4-5.

Like-named read-outs stand apart in the source and are kept apart here.

As for insulin glargine [IGla], in assay [1], the “time to maximum beating-rate” value was found to be 10 min and the “beating-rate, area under the curve for 6 h” value (shortened to “beating-rate, area”) is “significant increase”. Moreover, in [2], the “increase in departure velocity (shortening rate)” value (“increase in departure velocity” below) is “~ twofold”, the “increase in return velocity (re-lengthening rate)” value (from here on “increase in return velocity”) is “~ threefold” and the “increase in sarcomeric shortening” value was ~ 2.5 fold. In addition, the “glucose uptake, comparison between insulins” value with HL-1 cells is listed as “no difference”. Also, the “prevention of H2O2-induced caspase 3/7 activation (in words)” value in assay [3] (H9c2-E2) is recorded as “same potency to prevent caspase 3/7 activation as Ins”. In addition, in [4], the “cardiovascular effects vs standard care treatment” value was “non-inferiority”.
On to `OO` [H2O2, reference compound], for which the “induction of caspase 3/7 activity” value in assay [3] (800 µM H2O2, 2 h, H9c2-E2, vs. basal, n = 5-6) turned out to be 4.8 fold. Also, the “induction of caspase 3/7 activity (in words)” value in assay [3] (H2O2 challenge, H9c2-E2) is given as “fivefold increase”.
For the compound insulin, in [1], the “time to maximum beating-rate” value was 10 min and the “beating-rate, area” value is reported as “significant increase”. In assay [2], the “increase in departure velocity” value is “~ twofold”, the “increase in return velocity” value was “~ threefold” and the “increase in sarcomeric shortening” value is ~ 2.5 fold. In addition, the “decrease of caspase 3/7 activity compared to H2O2 treatment alone” value in assay [3] (100 nM insulin + 800 µM H2O2, 2 h, H9c2-E2, n = 5-6) is given as “up to 70.3%”.
As a reminder, the IC50 is the concentration at which inhibition is half-maximal. Consider insulin degludec [IDeg], for which, in assay [1], the “onset of action on beating-rate” value is reported as “slower onset of action”; the “time to maximum beating-rate” value came to 20 min; the “beating-rate, area” value is given as “significant increase”. Moreover, in assay [2], the “increase in departure velocity” value is listed as “~ twofold”, the “increase in return velocity” value is “~ threefold” and the “increase in sarcomeric shortening” value is reported as ~ 2.5 fold. Besides, in assay [5] (200 nM, 5 min, HL-1, normalised to tubulin, n = 4-5), the “Akt(Ser473) phosphorylation level” value is on record as “significantly lower”. Moreover, in [5] (200 nM, 10 min, HL-1, normalised to tubulin, n = 4-5), the “Akt(Ser473) phosphorylation level” value is on record as “significantly lower”. Besides, in assay [5] (setting [10]), the “Akt(Ser473) phosphorylation level compared to IGla” value was “still significantly lower”; the “Akt(Ser473) phosphorylation level compared to Ins and IGlaM1” value is listed as “similar”. Moreover, the “Akt(Ser473) phosphorylation” value in assay [5] (HL-1, 5- and 10-min incubation, compared to insulin, insulin glargine and M1) is listed as “lower”. The IC50 in [6] (anti-IR antibody 83-7 SPA, 100 pM [125I]-insulin, pH 7.8, 12 h at 23 °C, mean ± SEM, at least six times on different days, quadruplicates, read-out: IR affinity IC50) stood at 3.12 ± 0.42 nM. Further, the “IC50 fold higher compared to Ins” value in [6] (ratio of IC50 vs. Ins) was determined as 5.4 fold. The “binding affinity relative to human insulin” value in assay [6] (this paper) was ~ 18.6%. For the same compound, the “IR affinity (in words)” value in [7] is recorded as “very low binding affinities”. Besides, the IC50 in assay [7] (2 µg isolated membrane, WGA-PVT-PEI SPA beads, 100 pM [125I]-human Ins, pH 7.8, 12 h at 23 °C, mean ± SEM, at least four independent experiments in quadruplicates, read-out: IR affinity IC50) is 19.6 ± 1.1 nM. Further, the “IR affinity (in words)” value in assay [7] (listed as Insulin degludec) is listed as “significant lower IR affinity”. In [7] (ratio of IC50 vs. Ins), the “IC50 fold higher compared to Ins” value is 23.6 fold. The “binding affinity compared to Ins” value in assay [7] (relative to Ins) is recorded as ~ 4%. For the same compound, in the assay with HL-1 cells, the “glucose uptake, comparison between insulins” value was “no difference”. In [3] (H9c2-E2), the “prevention of H2O2-induced caspase 3/7 activation (in words)” value is on record as “same potency to prevent caspase 3/7 activation as Ins”. The “Akt(Thr308) phosphorylation, kinetic” value in [8] (200 nM, 5, 10 and 60 min, HL-1, same kinetic as for Akt(Ser473)) was “The same kinetic was observed”. Also, the “Akt(Thr308) phosphorylation” value in assay [8] (200 nM, 5- and 10-min incubation, HL-1, compared to insulin, insulin glargine and M1) is “lower”. Also, in assay [9], the “major adverse cardiovascular outcome vs IGla” value is “non-inferiority to IGla”.
